The subject of experiment [1] is cells lacking TrkB/TrkC receptors. The experiment is described as follows: Binding and activity in Trk negative cells (HEK293 and NIH/3T3). Conditions: non-transfected HEK293 and NIH/3T3. The procedure:
FIG. 2: 5c(i) binds to TrkB and TrkC receptors. Transfected cell lines that are Trk positive cells (TrkB-HEK293 and TrkC-NIH/3T3) and non-transfected cell lines that are Trk negative cells (HEK293 and NIH/3T3) were seeded approximately 2,000 cells/well in a 96-well plate and incubated for 24 hours. The cells were treated with a serial dilution of compound (0, 10, 25, 50, 100, 200, 500, and 1000 nM) in serum-free media (SFM) with and without A) 0.6 nM of BDNF (TrkB-HEK293 and HEK293) and B) 0.2 nM of NT-3 (TrkC-NIH/3T3 and NIH/3T3) for 2.5 h. After that, the cells were washed with PBS once to remove unbound compounds and dissolved in 1% (w/v) aqueous sodium dodecyl sulfate. Cell-associated fluorescence was then determined by measuring the emission of the resulting solution upon λex (540/25 nm) and λem (620/40 nm) using Agilent BioTek Synergy H4 Hybrid Microplate Reader. Kd was calculated by GraphPad Prism 9 using Binding saturation (One site—Specific binding).
Transfected cell lines that are Trk positive cells (TrkA-HeLa, TrkB-HEK293, and TrkC-NIH/3T3) and non-transfected cell lines that are Trk negative cells (HeLa, HEK293, and NIH/3T3) were seeded at 2,000 cells/well in a 96-well plate (0.32 cm^2 growth area) and incubated inside a 5% CO2 incubator at 37° C. for 24 hours. […] The dissociation constant (Kd) was calculated using binding saturation (One site—Specific binding).

The subject of another experiment is GSK-3β. The experiment is described as follows: Astrocyte GSK-3β western blot. The format is cell-based, mouse. Conditions: astrocytes from 6-month-old male mice, 5 μM, 3 days, cell lysate. Here is the method:
FIGS. 4A-4D: 5c(i) induces Synapsin I production and reduces C3 and GSK-3s expression from astrocytes promoting neuron survival and neurite growth. Primary adult cortical astrocytes from 6-month-old male mice were incubated with 5 μM 5c(i) for 3 days. Graph represents mean±SEM of percent change in fluorescent intensity (Synapsin I and C3) or chemiluminescence (GSK-3β) relative to Vehicle (4A and 4D). Images represent the 4B) Vehicle and 4C) 5 μM 5c(i) treated groups stained with Synapsin I and DAPI. D) Cortical astrocytes from 6-month-old male mice were plated and treated with 5c(i) or Vehicle for 2 days. Cells were then washed and cortical neurons from 6-month-old male mice were added on top of the astrocytes. […] Scale bar=50 μm.
To determine if 5c(i) can modulate astrocytes, adult astrocytes from 6-month-old male mice were treated with 5c(i) for 3 days and stained with Synapsin I and C3 to measure changes in fluorescent intensity or western blot was conducted on the cell lysate to assess changes in GSK-3β expression (FIG. 4). […] To determine if 5c(i) treated astrocytes can directly benefit neuronal recovery, astrocytes were cultured with 5c(i) for 2 days before removing 5c(i) from the culture and plating adult neurons on top of the astrocytes for 2DIV, resulting in increased neuron survival and neurite growth. […]
A general note: In western blotting, separated proteins are transferred to a membrane and probed.

Experiment [2] has as its system severe T8 contusion/compression SCI. The experiment is described as follows: Preclinical SCI model: locomotor test (BMS) and survival. Conditions: IP daily 5 and 25 mg/kg/day. The format is in vivo, mouse. The procedure: FIG. 8: Timeline of the preclinical in vivo animal study conducted as evidence of claims. Mice underwent baseline cognitive testing and blood collection immediately before SCI. Mice sustained an SCI at 8 weeks of age. SCI model: thoracic-8 contusion (50 kdyne impact) and compression ([…]), a severe contusion/compression model that accurately represents injuries seen in the clinic. 5c(i) (5 or 25 mg/kg/day) or Vehicle were administered IP daily starting 4 hours post injury to reflect the delay found in the clinic. Locomotor behavioral testing (BMS and Rotarod) were conducted weekly for 7 weeks. 7 weeks after injury, the mice underwent cognitive behavioral testing (NOR and Y-maze) and blood collection once again. Mice were euthanized 7 weeks after sustaining an SCI and underwent perfusion and tissue preparations for further analysis.
9A) BMS Score and 9B) BMS Sub Score were recorded and graphed in relation to time after injury. 9C) Percent of mice surviving at 49 days post injury. […] N=6-8. Graphs show mean and SEM. […] Student's T-test.
Open Field Basso Mouse Scale (BMS): Mice were placed in an open field for 5 minutes to allow mice to freely roam to visually evaluate (by 2 individuals) the following parameters: ankle movements, stepping pattern, coordination, paw placement, trunk instability, and tail position. The mice were scored according to the BMS scoring system^59 with a minimum score of 0 (no movement) to a maximum score of 9 (normal locomotion) followed by the BMS Sub score (assessing stepping patterns, tail movement, trunk posture, paw position, and coordination)^12,60. Rotarod: Mice were placed on a rod rotating at increasing speeds from 5 to 45 rotations per minute (rpm) in a 3-minute interval with constant acceleration to assess strength, endurance, and motor coordination^12,60. Mice were first acclimated to the rotarod with 5 habituation sessions the week before injury. Baseline testing was conducted 1 day before injury. […]

For the substance “C-DIRG-C BODIPY® (fluorescent dye) [5c(i)]”, the “binding and biological activity in cells lacking TrkB/TrkC receptors” value in experiment [1] is “lack of binding and biological activity”. The GSK-3β expression entry with GSK-3β is on record as “reduction”. The “mice surviving at 49 days post injury” value in experiment [2] is on record as “improves survival”. In experiment [2] (7 weeks), the “BMS Sub score” value was “significantly improved” and the BMS score entry is on record as “significantly improved”.

The values above are taken from patent US20260042801A1, “COMPOSITIONS AND METHODS FOR DYE-BOUND CYCLIZED PEPTIDES FOR MEDICAL USE” (The Texas A&M University System, priority 2022, published 2026).
